Patent publication US4681890A, “3,4-dihydrobenzopyran compounds and pharmaceutical composition containing the same” (Kuraray Co., Ltd., priority 1984, dated 1987)

Legend:
[1] = tested on: Total cholesterol in serum (hypercholesterolemic mice); experiment: Blood cholesterol lowering activity (total serum cholesterol in mice given a lipid emulsion); type: in vivo, dd-Male mice; details: for Serum cholesterol value: p.o., 17 hours after second administration
Experimental: dd-Male mice weighing about 25 g (one group: 10 mice) were allowed to fast for 12 hours, and thereto was orally administered a lipid emulsion (olive oil 32.7%, cholesterol 2.5%, sodium cholate 1.8%, sucrose 41.9%, and water 21.1%) in a dose of 25.5 ml/kg. A suspension of a test compound in gum arabic was orally administered to the mice twice, i.e. immediately after and […] after the administration of the lipid emulsion. 17 hours after the second administration of test compound, blood was collected from descending abdominal aorta under ether anesthesia. Total cholesterol in serum was measured by COD-p-chlorophenol colorimetry. As a reference compound, there was used Nicomol (chemical name: 2,2,6,6-tetrakis(nicotinoyloxymethyl)cyclohexanol) which is commercially available anticholesteremic agent.
Serum cholesterol values at 17 hours after the second administration of test compound were compared with the serum cholesterol values in normal mice and hypercholesterolemic mice.

[2] = tested on: blood cholesterol concentration; details: known agents, background; cited from earlier work
[3] = tested on: ornithine carbamyl transferase (OCT) in serum, ethanol-administered mice; experiment: Activity against alcoholic hepatic disease (serum OCT activity); type: in vivo, dd-Male mice
Experimental: dd-Male mice (4 weeks age, weighing about 15 g, one group: 10 mice) were fed with a hyperlipid feed [composition: cholesterol 1.0%, sodium cholate 0.5%, butter 5.0%, sucrose 30.0%, casein 10.0%, and M powder feed (manufactured by Oriental Yeast Co., Ltd., Japan) 53.5%] for 4 weeks. During the feeding, a suspension of a test compound in gum arabic and a 20% aqueous ethanol (15 ml/kg) were orally administered twice a day (morning and evening). After 4 weeks, mice were subjected to laparotomy under ether anesthesia, and blood was collected from the descending abdominal aorta. The blood thus collected was centrifuged at 3,000 r.p.m. for 15 minutes, and the enzymatic activity of ornithine carbamyl transferase (OCT) was measured with OCT-Test Wako (manufactured by Wako Pure Chemical Industries, Ltd., Japan).
The OCT activity in serum of mice which were administered test compounds was compared with the OCT activity in serum of normal mice and in control mice which were administered only 20% aqueous ethanol.

[4] = tested on: glutamic oxaloacetic transaminase (GOT) in serum, CCl4-administered mice; experiment: Activity against carbon tetrachloride-induced hepatic disease (serum GOT); type: in vivo, dd male mice
Experimental: (§1) To dd male mice weighing 18-20 g (one group: 10 mice) was orally administered a suspension of a test compound in gum arabic twice or three times per day. On the third day, 1% carbon tetrachloride (v/v % in olive oil) was subcutaneously injected at the back of the mice in a dose of 2 ml/kg one hour after the last administration of test compound. 19 hours after the injection of CCl4, a suspendion of a test compound in gum arabic was orally administerd. After one hour, the mice were subjected to laparotomy under ether anesthesia and blood was collected from the descending abdominal aorta. The blood thus collected was centrifuged at 3,000 r.p.m. for 15 minutes. The enzymatic activities of glutamic oxaloacetic transaminase (GOT) and glutamic pyruvic transaminase (GPT) in serum were measured with S.TA-Test Wako (manufactured by Wako Pure Chemical Industries, Ltd., Japan).
(§2) The activities of GOT and GPT in serum of the mice which were administered test compounds were compared with the GOT and GPT activities in serum of normal mice and 1% CCl4 (v/v % in olive oil)-administered mice.

[5] = tested on: glutamic pyruvic transaminase (GPT) in serum, CCl4-administered mice; experiment: Activity against carbon tetrachloride-induced hepatic disease (serum GPT); type: in vivo, dd male mice
Experimental: as §1, §2

Acute toxicity (LD50) = details: mouse, in vivo; mice, oral administration
Experimental: The compounds of this invention show a low toxicity. For instance, Compound 1 and Compound 2 have LD50 of more than 5,000 mg/kg in mice (by oral administration).

O=C(OCC1(COC(=O)c2cccnc2)CCCC(COC(=O)c2cccnc2)(COC(=O)c2cccnc2)C1O)c1cccnc1 [Nicomol, 2,2,6,6-tetrakis(nicotinoyloxymethyl)cyclohexanol, reference compound]
Serum cholesterol value ([1]; Table 1, 640 mg/kg, normal 98.6 ± 10.8, hypercholesterolemic 172.2 ± 8.6): 146.1 ± 14.7 mg/dL | Serum cholesterol value ([1]; Table 2, 640 mg/kg, normal 101.0 ± 5.8, hypercholesterolemic 194.3 ± 9.5): 139.4 ± 4.4 mg/dL | Serum cholesterol value ([1]; Table 3, 640 mg/kg, normal 109.1 ± 9.3, hypercholesterolemic 164.0 ± 12.8): 138.3 ± 12.5 mg/dL | Serum cholesterol value ([1]; Table 4, 640 mg/kg, normal 111.3 ± 8.6, hypercholesterolemic 165.0 ± 13.4): 142.7 ± 11.5 mg/dL | blood cholesterol concentration lowering [2]: not necessarily sufficient for lowering blood cholesterol

Cc1c(C)c2c(c(C)c1OC(=O)c1cccnc1)CCC(C)(CC(COC(=O)c1cccnc1)OC(=O)c1cccnc1)O2 (centres unmarked) [Compound 7]
Serum cholesterol value ([1]; Table 3, 571 mg/kg, normal 109.1 ± 9.3, hypercholesterolemic 164.0 ± 12.8): 143.6 ± 10.8 mg/dL

Cc1c(C)c2c(c(C)c1OC(=O)c1cccnc1)CCC(C)(CCCOC(=O)c1cccnc1)O2 (centres unmarked) [Compound 6, 3,4-dihydro-2-nicotinoyloxypropyl-2,5,7,8-tetramethyl-2H-benzopyran-6-yl nicotinate]
Serum cholesterol value ([1]; Table 1, 474 mg/kg, normal 98.6 ± 10.8, hypercholesterolemic 172.2 ± 8.6): 123.8 ± 13.8 mg/dL

Cc1c(C)c2c(c(C)c1OC(=O)c1cccnc1)CCC(C)(CCOC(=O)c1cccnc1)O2 (centres unmarked) [Compound 2, 3,4-dihydro-2-nicotinoyloxyethyl-2,5,7,8-tetramethyl-2H-benzopyran-6-yl nicotinate]
Serum cholesterol value ([1]; Table 2, 300 mg/kg, normal 101.0 ± 5.8, hypercholesterolemic 194.3 ± 9.5): 139.6 ± 9.3 mg/dL | OCT activity unit (mean ± S.E.) ([3]; Table 5, 300 mg/kg, p.o., twice a day, 4 weeks, normal 5.1 ± 3.2, ethanol-administered 122.5 ± 17.0): 79.6 ± 12.2 unit | GOT activity (average) ([4]; Table 6, 300 mg/kg, p.o., normal 87.9 ± 5.3, CCl4-administered 914.3 ± 195.1): 582.9 ± 59.8 | GPT activity (average) ([5]; Table 6, 300 mg/kg, p.o., normal 74.0 ± 16.3, CCl4-administered 1251.4 ± 285.4): 765.7 ± 84.4 | LD50 (Acute toxicity (LD50)): > 5000 mg/kg

Cc1c(C)c2c(c(C)c1O)CCC(C)(COC(=O)c1cccnc1)O2 (centres unmarked) [Compound 4]
Serum cholesterol value ([1]; Table 1, 341 mg/kg, normal 98.6 ± 10.8, hypercholesterolemic 172.2 ± 8.6): 159.4 ± 13.4 mg/dL

O=C(OCC(COC(=O)c1cccnc1)(COC(=O)c1cccnc1)COC(=O)c1cccnc1)c1cccnc1 [pentaerythritol tetranicotinate]
blood cholesterol concentration lowering [2]: not necessarily sufficient for lowering blood cholesterol

Cc1c(C)c2c(c(C)c1O)CCC(C)(CCOC(=O)c1cccnc1)O2 (centres unmarked) [Compound 1, 3,4-dihydro-2-nicotinoyloxyethyl-2,5,7,8-tetramethyl-2H-benzopyran-6-ol]
Serum cholesterol value ([1]; Table 1, 355 mg/kg, normal 98.6 ± 10.8, hypercholesterolemic 172.2 ± 8.6): 130.7 ± 11.3 mg/dL | LD50 (Acute toxicity (LD50)): > 5000 mg/kg

Cc1c(C)c2c(c(C)c1OC(=O)c1cccnc1)CCC(C)(COC(=O)c1cccnc1)O2 (centres unmarked) [Compound 5, 3,4-dihydro-2-nicotinoyloxymethyl-2,5,7,8-tetramethyl-2H-benzopyran-6-yl nicotinate]
Serum cholesterol value ([1]; Table 1, 452 mg/kg, normal 98.6 ± 10.8, hypercholesterolemic 172.2 ± 8.6): 127.9 ± 14.2 mg/dL | cholesterol lowering activity compared with Nicomol ([1]; relative to Nicomol): about two times higher cholesterol lowering activity than Nicomol | inhibition of increase of OCT activity induced by alcohol ([3]; in words): excellent inhibition of increase of OCT activity induced by alcohol in a similar degree to that of Compound 2 | inhibition of increase of GOT activity induced by CCl4 ([4]; in words): excellent inhibition of increase of GOT and GPT activities induced by CCl4 in a similar degree to that of Compound 2 | inhibition of increase of GPT activity induced by CCl4 ([5]; in words): excellent inhibition of increase of GOT and GPT activities induced by CCl4 in a similar degree to that of Compound 2

O=C(O)c1cccnc1 [nicotinic acid]
blood cholesterol concentration lowering [2]: temporarily lowered, but the lowered concentration is not sustained

Cc1c(C)c2c(c(C)c1OC(=O)c1cccnc1)CCC(C)(CCO)O2 (centres unmarked) [Compound 3]
Serum cholesterol value ([1]; Table 4, 355 mg/kg, normal 111.3 ± 8.6, hypercholesterolemic 165.0 ± 13.4): 144.0 ± 10.5 mg/dL
